Assays:
dynamin = system: dynamin; set-up: method as in PMID 16740485, PMID 24491918; details: cited from earlier work
[1] = system: brain-like endothelial cells (BLECs); experiment: in vitro; details: control, absence of peptide (0 nM)
Experimental: The in vitro BBB model, consisting of CD34^+ endothelial cells (ECs) derived from hematopoietic stem cells in co-culture with bovine brain pericytes, was established as described by Cecchelli et al.. Written and informed consent was obtained for the collection of human umbilical cord blood, in compliance with French legislation. […] All experiments were carried out in line with the authorized protocol.
These isolated CD34+ cells were cultured in EGM-2, supplemented with 20% (v:v) FBS and 50 ng/mL vascular endothelial growth factor on 1% (w:v) gelatine-coated 24-well plates (2 × 10^5 cells/well). After 15–20 days, ECs are seen in the culture dish. For each experiment, the cells were expanded in 1% (w:v) gelatine-coated T75 flasks (BD Biosciences, Le Pont-de-Claix, France) in EGM-2. Bovine brain pericytes were isolated and characterized as described by Vandenhaute et al.. Sub-clones were cultured in Dulbecco’s Modified Eagle’s Medium supplemented with 20% (v:v) FBS, 2 mM L-glutamine, 50 µg/mL gentamycin, and 1 ng/mL basic fibroblast growth factor. At confluency, 5 × 10^4 cells were seeded in ECM-5 with 5% (v:v) FBS, 50 µg/mL gentamycin, and 0.5% endothelial cell growth factor in gelatine-coated 12-well plates (Costar, Corning Inc., New York, NY, USA). CD34^+-derived ECs were seeded at 8 × 10^4 cells per Matrigel-coated (BD Biosciences) insert (3401, Corning Inc., NY, USA) and put in co-culture with the bovine brain pericytes, with the pericytes at the bottom of the well, for 6 days to achieve brain-like endothelial cell (BLEC) characteristics (Figure 4b).
At the beginning of the permeability experiments, inserts with BLEC monolayers were transferred to new abluminal (receiver) compartments previously filled with 1.5 mL of RH buffer, and 500 µL of the compounds dissolved in RH buffer, with the addition of the paracellular marker sodium fluorescein (NaFlu), were added to the luminal (donor) compartment. After 3 h of incubation at 37 °C, with a shaking velocity of 60 rpm, aliquots were taken from the donor and receiver compartment. The BLEC monolayers were washed twice with cold RH buffer and lysed with RLT Lysis buffer. The samples were kept at −20 °C pending analysis in low-binding tubes.
An increase in the permeability to NaFlu in the presence of the peptide can indicate an increase in paracellular leakage and consequent loss of barrier integrity. To evaluate the ability of test compounds to cross Matrigel-coated filters without cells and to control for the adsorption to plastics and/or Matrigel, the NaFlu and peptide’s permeability over inserts without cells were also assessed. Mass balance (M.B%) was calculated from the amount of compound recovered in both compartments at the end of the experiment divided by the total amount added to the donor compartment at the start of the experiment.
Samples from both compartments as well as the lysed endothelial cells were analysed for fluorescence using a Synergy H1 (Biotek) set to quantify NaFlu (wavelengths Excitation 490 nm and Emission 525 nm) and with UPLC-MS/MS to assess the permeability and cellular uptake of the peptides. All experiments were performed in triplicate (n = 3 independent experiments per concentration and cCPPs).
Papp is the apparent permeability, J is the rate of appearance of the compound in the receiver compartment (amount/sec), and C0 is the concentration in the donor compartment at the start of the experiment (amount/mL).

SMILES	Decrease in dynamin activity (dynamin; 50 µM) [%]	IC50 (dynamin) [µM]	Permeability (Pe) to sodium fluorescein, mean [1]
O=C(N/N=C/c1ccc(O)c(O)c1)c1cc2ccccc2cc1O [Dynasore, dynasore]	70	15	
O=C([O-])c1ccccc1-c1c2ccc(=O)cc-2oc2cc([O-])ccc12.[Na+].[Na+] [sodium fluorescein, reference compound]			0,46 10‐3 cm/min

Reference: PMC10222203 (Pharmaceutics, 2023)
